# Measurements reported in publication PMC6402034 (Biochemical Journal, 2019).
# What was measured:
# [1] = target: T1, ALA2 (aminophospholipid ATPase 2) (Arabidopsis thaliana, UniProt P98205); test: lipid-stimulated ATPase activity of purified complex; type: biochemical
# T1 sequence (P98205 1-1107): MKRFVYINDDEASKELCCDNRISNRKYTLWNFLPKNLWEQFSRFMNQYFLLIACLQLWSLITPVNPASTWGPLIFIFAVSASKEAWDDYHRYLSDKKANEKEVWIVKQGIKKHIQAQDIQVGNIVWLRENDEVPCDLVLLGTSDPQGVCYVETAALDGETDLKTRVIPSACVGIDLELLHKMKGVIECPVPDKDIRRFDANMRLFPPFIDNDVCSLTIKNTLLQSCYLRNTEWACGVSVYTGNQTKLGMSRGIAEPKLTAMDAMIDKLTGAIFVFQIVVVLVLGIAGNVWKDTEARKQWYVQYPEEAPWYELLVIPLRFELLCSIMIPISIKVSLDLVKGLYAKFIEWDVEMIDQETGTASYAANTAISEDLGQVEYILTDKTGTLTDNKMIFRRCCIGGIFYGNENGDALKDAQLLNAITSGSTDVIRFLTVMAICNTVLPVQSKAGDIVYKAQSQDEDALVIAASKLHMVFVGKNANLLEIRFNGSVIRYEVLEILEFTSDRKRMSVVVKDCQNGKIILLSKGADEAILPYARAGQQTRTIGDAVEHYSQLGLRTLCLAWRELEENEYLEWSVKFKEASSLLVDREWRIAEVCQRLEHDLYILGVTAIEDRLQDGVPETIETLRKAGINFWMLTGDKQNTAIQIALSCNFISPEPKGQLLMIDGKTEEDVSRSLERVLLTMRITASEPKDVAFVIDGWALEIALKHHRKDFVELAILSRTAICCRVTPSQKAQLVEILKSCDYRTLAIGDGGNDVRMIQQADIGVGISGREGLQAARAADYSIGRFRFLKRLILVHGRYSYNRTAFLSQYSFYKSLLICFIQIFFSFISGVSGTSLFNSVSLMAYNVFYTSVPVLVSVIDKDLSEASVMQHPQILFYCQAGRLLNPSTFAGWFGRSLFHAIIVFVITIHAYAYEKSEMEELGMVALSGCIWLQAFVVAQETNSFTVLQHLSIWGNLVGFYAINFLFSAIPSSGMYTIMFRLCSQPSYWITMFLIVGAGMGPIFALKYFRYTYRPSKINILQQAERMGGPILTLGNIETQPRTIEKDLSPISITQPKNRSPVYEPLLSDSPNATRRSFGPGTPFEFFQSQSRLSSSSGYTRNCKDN
# T1 sequence (Q8L8W0 2-350 partner): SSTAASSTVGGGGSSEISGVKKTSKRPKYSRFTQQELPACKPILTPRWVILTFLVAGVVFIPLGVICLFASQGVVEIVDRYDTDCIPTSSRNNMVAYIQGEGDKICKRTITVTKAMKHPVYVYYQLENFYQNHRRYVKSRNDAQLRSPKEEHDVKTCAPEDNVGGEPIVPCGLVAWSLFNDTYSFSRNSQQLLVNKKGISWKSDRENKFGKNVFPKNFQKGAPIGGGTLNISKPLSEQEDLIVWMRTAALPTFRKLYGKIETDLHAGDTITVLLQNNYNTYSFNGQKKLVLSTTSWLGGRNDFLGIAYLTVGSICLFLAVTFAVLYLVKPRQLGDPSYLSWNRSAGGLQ
# [2] = target: T1, ALA2 (aminophospholipid ATPase 2)
# [3] = target: T1, ALA2 (aminophospholipid ATPase 2); test: lipid-stimulated ATPase activity of purified complex; type: biochemical; remark: listed apart in the source
smiles,measurement,setting,value
"CCCCCCCCCCCCCCCC(=O)OC[C@@H](O)COP(=O)(O)OC[C@H](N)C(=O)O [Lyso-PS, 1-hexadecanoyl-sn-glycero-3-phospho-L-serine]",EC50,[1],34 ± 7 µM
[O]=[V]([OH])([OH])[OH] [orthovanadate],IC50,[2],~22 µM
"CCCCCCCC/C=C\CCCCCCCC(=O)O[C@H](COC(=O)CCCCCCCCCCCCCCC)COP(=O)(O)OC[C@@H](N)C(=O)O [P-D-S, 1-palmitoyl-2-oleoyl-sn-glycero-3-phospho-D-serine]",lipid-stimulated ATPase activity of purified complex,[3],The stereoisomer phosphatidyl-D-serine (P-D-S) was less than half as effective at stimulating ATPase activity compared with PS
